Measured values: patent US9573907B2, “2, 4-pyrimidine derivatives and use thereof” (SNU R&DB FOUNDATION, priority 2009, dated 2017)
“Also recorded” adds a separate entry of the source.

Experiments:
[1] = molecular target: T1, interaction of gp96 with KDELR1 (Mus musculus, UniProt P08113); experiment: Co-immunoprecipitation of gp96 with KDELR1 in RAW24.7 cells; type: cell-based; conditions: 10 μM, 24 h
T1 construct: endogenous in cells; host or cells: RAW24.7 (RAW264.7) cells
Procedure: FIGS. 1 to 9 represent suppression of cell surface gp96 by GPM1 reduces DC maturation and B220^+ population in gp96tm transgenic mice. (FIG. 1) Chemical structure of GPM1 (Formula 2) and negative control (NC1, Formula 16) used in this study. (FIG. 2) The dose-dependent effect of GPM1 or NC1 on the AIMP1-gp96 interaction using ELISA method as described. The indicated concentrations of the two compounds and biotin-conjugated murine gp96 were added to AIMP1 coated on the surface of microtiter wells, and gp96 bound to AIMP1 was detected with strepavidin-conjugated peroxidase. (FIG. 3) The binding of GPM1 to gp96 was examined by surface plasmon resonance (SPR). GPM1 at the indicated concentrations was injected to immobilized gp96 and the binding was measured using Biacore 3000. The response data were processed using data from a reference surface and buffer injections. Each concentration was tested in triplicate. (FIG. 4) RAW24.7 cells were treated with 10 μM GPM1 for 24 h. Cell lysates were immunoprecipitated with control IgG or anti-gp96 antibody and the immunoprecipitated proteins were immunoblotted with anti-KDELR1, antiAIMP1 and gp96 antibodies. WCL means whole cell lysate. […] TNFα secreted from BMDCs was quantified by ELISA. […]

gp96 = gp96 (Homo sapiens, UniProt P14625); experiment: ATPase activity of gp96 (ATPase assay kit); type: biochemical; conditions: 0 vs. 100 μM
Procedure: FIG. 22 represents the effect of point mutations on the ATPase activity of gp96. (a) The effect of gp96 point mutations on its ATPase activity was examined using ATPase assay kit (Innova Biosciences, Cambridge, UK). One unit is the amount of enzyme that catalyzes the reaction of 1 μmol of substrate per minute. The enzymatic activity was calculated according to manufacturer's instruction.
FIG. 23 represents the effect of GPM1 on the ATPase activity gp96. (a) The dose-dependent effect of GPM1 on the ATPase activity.

AIMP1 = molecular target: T2, AIMP1 (Homo sapiens, UniProt Q12904); experiment: Surface plasmon resonance, binding to AIMP1; conditions: SPR, BIAcore 3000
T2 sequence (Q12904 1-312): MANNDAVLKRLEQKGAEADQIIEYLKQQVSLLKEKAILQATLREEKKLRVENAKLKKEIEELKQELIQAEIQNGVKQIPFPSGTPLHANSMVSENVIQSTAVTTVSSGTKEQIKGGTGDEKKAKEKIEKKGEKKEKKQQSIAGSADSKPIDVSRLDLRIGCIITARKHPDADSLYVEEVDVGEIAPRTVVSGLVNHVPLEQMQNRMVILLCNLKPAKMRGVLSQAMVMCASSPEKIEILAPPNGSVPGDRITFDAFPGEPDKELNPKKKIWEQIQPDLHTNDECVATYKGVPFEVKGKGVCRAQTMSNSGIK
From the text: The present inventors compared the dose-dependent effect of GPM1 and NC1 on the interaction of gp96 and AIMP1 using ELISA. […] The present inventors monitored the binding kinetics of GPM1 to gp96 or AIMP1 by surface plasmon resonance (SPR) using BIAcore 3000. […] To further define the GPM1 binding region of gp96 (Han, J. M., Park, S. G., Liu, B., Park, B. J., Kim, J. Y., Jin, C. H., Song, Y. W., Li, Z. & Kim, S. Am. J. Pathol. 170, 2042-2054 (2007)), the present inventors introduced point mutations at L707, V706, V712, L713, F714, Y731 and M738 that are located within AIMP1 binding region of gp96 and monitored how the mutations at these sites would affect the binding of GPM1 to gp96 using SPR method.

Chain of gp96 (P14625 22-803): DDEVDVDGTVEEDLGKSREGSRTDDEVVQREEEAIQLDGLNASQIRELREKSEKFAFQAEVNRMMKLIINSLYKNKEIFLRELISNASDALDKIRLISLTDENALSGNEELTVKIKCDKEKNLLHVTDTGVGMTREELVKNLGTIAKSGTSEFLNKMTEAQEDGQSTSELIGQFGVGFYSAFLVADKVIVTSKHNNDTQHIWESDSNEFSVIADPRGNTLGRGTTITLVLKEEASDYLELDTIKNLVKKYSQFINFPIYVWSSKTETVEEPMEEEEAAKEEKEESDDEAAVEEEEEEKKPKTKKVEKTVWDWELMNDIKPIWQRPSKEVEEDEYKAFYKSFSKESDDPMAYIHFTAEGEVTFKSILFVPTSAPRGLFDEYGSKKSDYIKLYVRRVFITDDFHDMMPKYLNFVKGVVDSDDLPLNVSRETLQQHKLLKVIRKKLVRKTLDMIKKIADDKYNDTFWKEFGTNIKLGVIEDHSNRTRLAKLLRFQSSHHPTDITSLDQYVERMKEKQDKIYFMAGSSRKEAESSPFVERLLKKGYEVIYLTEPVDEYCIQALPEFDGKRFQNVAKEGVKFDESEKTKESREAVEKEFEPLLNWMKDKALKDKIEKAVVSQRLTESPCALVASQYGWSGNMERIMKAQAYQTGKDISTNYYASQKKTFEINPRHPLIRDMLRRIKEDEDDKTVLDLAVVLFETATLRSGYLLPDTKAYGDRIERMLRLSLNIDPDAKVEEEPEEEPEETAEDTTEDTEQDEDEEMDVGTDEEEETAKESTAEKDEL
T1 sequence (P08113 22-802): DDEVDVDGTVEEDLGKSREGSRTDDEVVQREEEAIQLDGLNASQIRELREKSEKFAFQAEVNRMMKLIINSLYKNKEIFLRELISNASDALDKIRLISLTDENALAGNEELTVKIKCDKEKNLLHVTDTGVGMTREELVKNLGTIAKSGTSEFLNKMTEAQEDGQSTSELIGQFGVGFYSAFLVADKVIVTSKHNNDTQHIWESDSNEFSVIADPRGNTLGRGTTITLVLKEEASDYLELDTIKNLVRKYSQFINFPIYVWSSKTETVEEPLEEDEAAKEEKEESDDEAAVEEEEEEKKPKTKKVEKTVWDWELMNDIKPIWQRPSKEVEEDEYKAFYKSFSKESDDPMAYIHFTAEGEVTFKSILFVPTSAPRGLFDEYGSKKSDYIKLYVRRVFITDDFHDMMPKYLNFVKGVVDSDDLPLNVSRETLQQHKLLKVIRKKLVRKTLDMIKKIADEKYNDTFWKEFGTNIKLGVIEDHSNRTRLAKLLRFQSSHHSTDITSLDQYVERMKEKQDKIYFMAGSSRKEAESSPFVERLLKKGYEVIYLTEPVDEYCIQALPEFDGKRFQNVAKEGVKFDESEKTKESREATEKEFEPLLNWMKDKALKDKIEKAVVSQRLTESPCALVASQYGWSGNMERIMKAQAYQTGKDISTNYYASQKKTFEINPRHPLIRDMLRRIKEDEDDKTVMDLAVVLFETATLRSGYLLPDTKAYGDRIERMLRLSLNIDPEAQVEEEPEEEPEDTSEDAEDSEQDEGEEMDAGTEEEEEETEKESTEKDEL

Q: Which “interaction of gp96 with KDELR1” value ([1]; RAW24.7 cells, co-immunoprecipitation) does the source give for `COC(=O)[C@@H](Oc1nc(OC)cc(OC)n1)C(C)C` [GPM1, (S)-methyl 2-(4,6-dimethoxypyrimidin-2-yloxy)-3-methylbutanoate] here?
A: The value was “increased”.

Q: And the “cellular levels of gp96, KDER1 and AIMP1” value ([1]; whole cell lysate)?
A: The value was “did not affect”.

Q: What about the “effect on the gp96 ATPase activity” value (gp96) of the same compound?
A: Its value is “little effect; also recorded: did not affect”.

Q: What about the “binding to AIMP1” value (AIMP1) of the same compound?
A: The value was “no apparent binding”.
